According to PMC3439832 (Journal of agricultural and food chemistry, 2011):
Converted amounts (≈) assume the structure as drawn. “And” between values parts separate entries of the source, which are not always exact repeats. Equal values may be shown once.

Columns and labels:
[1] = tested on: anti-p,p′-DDE antibody (mouse polyclonal antibody, sera); test: indirect competitive ELISA; type: binding; details: for % cross-reactivity: (IC50 p,p′-DDE/IC50 chemicals) × 100
[2] = tested on: human tissues; details: in human tissues; cited from earlier work
[3] = sera of mouse P3 at day 80, before the ELISA was optimized

For `Clc1ccc(C(c2ccc(Cl)cc2)C(Cl)Cl)cc1` [p,p′-DDD], the “% cross-reactivity” value ([1]; pooled mouse sera) was 112.5% and the IC50 ([1]; pooled mouse sera, ic-ELISA) was 0.02 mg/L (≈ 0.0625 µM).

With `Clc1ccc(Cc2ccc(Cl)cc2)cc1` [p,p′-DDM] the “% cross-reactivity” value ([1]; pooled mouse sera) was 59.7% and the IC50 ([1]; pooled mouse sera, ic-ELISA) was 0.0377 mg/L (≈ 0.159 µM).

In the case of `Clc1ccc(C(c2ccccc2Cl)C(Cl)(Cl)Cl)cc1` (stereo not shown) [o,p′-DDT], the IC50 ([1]; pooled mouse sera, ic-ELISA) is reported as >20 mg/L.

For `OC(c1ccc(Cl)cc1)c1ccc(Cl)cc1` [DCBH], the “% cross-reactivity” value ([1]; pooled mouse sera) was 9.25% and the IC50 ([1]; pooled mouse sera, ic-ELISA) was 0.2433 mg/L (≈ 0.961 µM).

In the case of `Clc1ccc(C(c2ccccc2Cl)C(Cl)Cl)cc1` (stereo not shown) [o,p′-DDD], the “% cross-reactivity” value ([1]; pooled mouse sera) is reported as 5.00% and the IC50 ([1]; pooled mouse sera, ic-ELISA) is reported as 0.45 mg/L (≈ 1.41 µM).

In the case of `OCC(c1ccc(Cl)cc1)c1ccc(Cl)cc1` [DDOH, 2,2′-bis(4-chlorophenyl)ethanol], the “% cross-reactivity” value ([1]; pooled mouse sera) is reported as 2.87% and the IC50 ([1]; pooled mouse sera, ic-ELISA) is reported as 0.785 mg/L (≈ 2.94 µM).

With `OC(c1ccc(Cl)cc1)(c1ccc(Cl)cc1)C(Cl)(Cl)Cl` [dicofol] the IC50 ([1]; pooled mouse sera, ic-ELISA) was >22.5 mg/L.

With `ClC(Cl)=C(c1ccc(Cl)cc1)c1ccccc1Cl` [o,p′-DDE] the “% cross-reactivity” value ([1]; pooled mouse sera) was 0.64% and the IC50 ([1]; pooled mouse sera, ic-ELISA) was 3.5 mg/L (≈ 11 µM).

In the case of `Clc1ccc(C(c2ccc(Cl)cc2)C(Cl)(Cl)Cl)cc1` [p,p′-DDT, 2,2-bis(p-chlorophenyl)-1,1,1-trichloroethane], the “% cross-reactivity” value ([1]; pooled mouse sera) is reported as 6.62%, the IC50 ([1]; pooled mouse sera, ic-ELISA) is reported as 0.34 mg/L (≈ 0.959 µM) and the IC50 [1, 3] is reported as “about 2.85 μg/mL”.

For `O=C(c1ccc(Cl)cc1)c1ccc(Cl)cc1` [p,p′-DBP], the “% cross-reactivity” value ([1]; pooled mouse sera) was 0.27% and the IC50 ([1]; pooled mouse sera, ic-ELISA) was 8.357 mg/L (≈ 33.3 µM).

For `ClC(Cl)=C(c1ccc(Cl)cc1)c1ccc(Cl)cc1` [p,p′-DDE, 1,1-Dichloro-2,2-bis(p-chlorophenyl) ethylene], the half-life [2] is listed as 7–11 years, the IC15 ([1]; developed ic-ELISA system) is listed as 0.0096 ± 0.0244 mg/L and 0.0096 mg/L and the IC50 ([1]; g-DDOH-OVA as coating antigen) is listed as 0.69 mg/L (≈ 2.17 µM). The “% cross-reactivity” value ([1]; pooled mouse sera) was 100%, the IC50 ([1]; pooled mouse sera, ic-ELISA) was 0.0225 mg/L (≈ 0.0707 µM) and the IC50 ([1]; s-DCBH-OVA as coating antigen) was 0.06 mg/L (≈ 0.189 µM). The IC50 [1, 3] was ~0.08 mg/L (≈ 0.252 µM).

In the case of `O=C(O)C(c1ccc(Cl)cc1)c1ccc(Cl)cc1` [p,p′-DDA], the “% cross-reactivity” value ([1]; pooled mouse sera) is reported as 0.28% and the IC50 ([1]; pooled mouse sera, ic-ELISA) is reported as 8.025 mg/L (≈ 28.5 µM).
